Patent US20030225081A1, “Pyridazinones and triazinones and medicinal use thereof” (priority 2000, published 2003)

Tested on: AMPA receptor
Assay: Suppressing action to calcium influx into nerve cells induced by AMPA
Type: cell-based
Details: Fura2-AM, stimulation with 2 μM AMPA, primary culture of rat embryo cerebral cortex nerve cells, 1 μM MK-801
Excerpt: Suppressing Action to Calcium Influx into Nerve Cells Induced by AMPA
The suppressing action of the compounds of the present invention to calcium influx into nerve cells induced by AMPA was investigated using the primary culture system of nerve cells of cerebral cortex of embryo of rat.
Cerebral cortex was cut out from the brain of rat of gestational 18 days and treated with trypsin and DNase to disperse the cells. The cells were flown by MEM containing 10% of serum, sown in a culture bottle and astrocytes were proliferated. The astrocytes were re-dispersed by trypsin and sown in a 96-well plate. After incubation for one week, it was confirmed that the astrocytes covered all over the bottom and then the nerve cells of cerebral cortex which was dispersed by the above method were sown thereupon. After incubation for 24 hours, the medium was changed, the incubation was carried out for one week and, after that, the medium was changed to that containing 1 μM of MK-801. Nerve cells which were incubated for not shorter than 8 to 10 days were used.
Calcium influx into the cells was measured using Fura2-AM which was a calcium-sensitive fluorescent dye. It was treated in a medium containing Fura2-AM for 1 hour, incorporated into the cells, exchanged to a Tyrode solution containing 1 μM MK-801 and stimulation was carried out using 2 μM AMPA. Change in the amount of calcium flown into the cells were measured as the change in the fluorescent intensity at the exciting wave length of 340/380 nm. […] As the control compound, GYKI52466 (Le Peillet, et al., Brain Res., 571, 115, 1992) was used.

## N#Cc1ccccc1N1N=C(c2ccccn2)CN(c2ccsc2)C1=O [Example 101, 2-(2-Cyanophenyl)-6-(2-pyridyl)-4-(thiophene-3-yl)-4,5-dihydro-1,2,4-triazin-3 (2H)-one]
  IC50: 100 nM

## N#Cc1ccccc1N1CC(c2ccccn2)=NN(c2ccccc2)C1=O [Example 104, 4-(2-Cyanophenyl)-2-phenyl-6-(2-pyridyl)-4,5-dihydro-1,2,4-triazin-3 (2H)-one]
  IC50: 500 nM

## O=C1N(c2ccsc2)CC(c2ccccn2)=NN1c1ccccc1 [Example 105, 2-Phenyl-6-(2-pyridyl)-4-(thiophen-3-yl)-4,5-dihydro-1,2,4-triazin-3 (2H)-one]
  IC50: 200 nM

## O=C1N(c2ccsc2)CC(c2ccccn2)=NN1c1ccccc1Br [Example 106, 2-(2-Bromophenyl)-6-(2-pyridyl)-4-(thiophen-3-yl)-4,5-dihydro-1,2,4-triazin-3 (2H)-one]
  IC50: 100 nM

## COc1ccc(N2CC(c3ccccn3)=NN(c3ccccc3)C2=O)c(OC)c1 [Example 107, 4-(2,4-Dimethoxyphenyl)-2-phenyl-6-(2-pyridyl)-4,5-dihydro-1,2,4-triazin-3 (2H)-one]
  IC50: 300 nM

## COc1ccccc1C1=NN(c2ccccc2Br)C(=O)N(c2ccsc2)C1 [Example 108, 2-(2-Bromophenyl)-6-(2-methoxyphenyl)-4-(thiophen-3-yl)-4,5-dihydro-1,2,4-triazin-3 (2H)-one]
  IC50: 4000 nM

## O=C1N(c2cccnc2)CC(c2ccccn2)=NN1c1ccccc1 [Example 109, 2-Phenyl-6-(2-pyridyl)-4-(3-pyridyl)-4,5-dihydro-1,2,4-triazin-3 (2H)-one]
  IC50: 300 nM

## O=C1N(c2cccnc2)CC(c2ccccn2)=NN1c1ccccc1Br [Example 110, 2-(2-Bromophenyl)-6-(2-pyridyl)-4-(3-pyridyl)-4,5-dihydro-1,2,4-triazin-3 (2H)-one]
  IC50: 100 nM

## N#Cc1ccccc1N1CC(c2ccccn2)=NN(c2ccccc2Br)C1=O [Example 111, 2-(2-Bromophenyl)-4-(2-cyanophenyl)-6-(2-pyridyl)-4,5-dihydro-1,2,4-triazin-3 (2H)-one]
  IC50: 400 nM

## O=C1N(c2ccccc2)CC(c2ccccc2)=NN1c1ccccc1Br [Example 112, 2-(2-Bromophenyl)-4,6-diphenyl-4,5-dihydro-1,2,4-triazin-3 (2H)-one]
  IC50: 300 nM

## O=C1N(c2ccccc2Br)CC(c2ccccc2)=NN1c1ccccc1 [Example 113, 4-(2-Bromophenyl)-2,6-diphenyl-4,5-dihydro-1,2,4-triazin-3 (2H)-one]
  IC50: 7100 nM

## COc1ccccc1C1=NN(c2ccccc2)C(=O)N(c2ccccc2Br)C1 [Example 115, 4-(2-Bromophenyl)-6-(2-methoxyphenyl)-2-phenyl-4,5-dihydro-1,2,4-triazin-3 (2H)-one]
  IC50: 7200 nM

## O=C1N(c2ccccn2)CC(c2ccccn2)=NN1c1ccccc1Br [Example 118, 2-(2-Bromophenyl)-6-(2-pyridyl)-4-(2-pyridyl)-4,5-dihydro-1,2,4-triazin-3 (2H)-one]
  IC50: 30 nM

## O=C1N(c2ccccc2)CC(c2ncccn2)=NN1c1ccccc1 [Example 119, 2-Phenyl-4-phenyl-6-(2-pyrimidinyl)-4,5-dihydro-1,2,4-triazin-3 (2H)-one]
  IC50: 4300 nM

## O=C1N(c2cccc([N+](=O)[O-])c2)CC(c2ccccn2)=NN1c1ccccc1Br [Example 121, 2-(2-Bromophenyl)-4-(3-nitrophenyl)-6-(2-pyridyl)-4,5-dihydro-1,2,4-triazin-3 (2H)-one]
  IC50: 400 nM

## O=C1N(c2ccc(F)cc2)CC(c2ccccn2)=NN1c1ccccc1Br [Example 122, 2-(2-Bromophenyl)-4-(4-fluorophenyl)-6-(2-pyridyl)-4,5-dihydro-1,2,4-triazin-3 (2H)-one]
  IC50: 200 nM

## O=Cc1cccc(N2CC(c3ccccn3)=NN(c3ccccc3Br)C2=O)c1 [Example 123, 2-(2-Bromophenyl)-4-(3-formylphenyl)-6-(2-pyridyl)-4,5-dihydro-1,2,4-triazin-3 (2H)-one]
  IC50: 300 nM
